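Where inhibition never reached the appropriate level, the endpoint shown equals the highest concentration tested. Otherwise, values were interpolated linearly from a five-concentration, 48-hour dose response in 96-well plates. TGI: total growth inhibition.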

Results on one compound are retold here after PubChem BioAssay (NCI).

The subject of the assay is P388/ADR leukemia. As to the kind of experiment: NCI tumour cell line growth inhibition, 48 h.

For the compound `O=c1cnn(C2OC(CO)C(O)C2O)c(=S)[nH]1` (stereo unspecified), the TGI was 6.27 µM.
